Measured values published in patent publication US6475491B1, “Treatment of HIV and other viral infections using combinatorial therapy” (priority 1995, dated 2002).
≈ marks a conversion by molar mass, not a printed value. Entries after “also recorded” stand apart in the source; their conditions may differ. Read-outs that look alike come from different tables or passages of the source.

Columns and labels:
HIV-1 [1] = conditions: cited from earlier work
HIV-1 [2] = conditions: cited from earlier work; remark: listed apart in the source
HIV-1IIIb [3] = test system: HIV-1IIIb
Method: (§6) The results of these assays are analyzed using Chou and Talalay's combination method (Chou and Talalay, 1984, Adv. Enzyme Regul. 22:27-55) and ‘Dose-Effect Analysis with Microcomputers’ software (Chou and Chou, 1987, software and manual. p19-64. Elsevier Biosoft, Cambridge, UK) in order to obtain a Combination Index. Combination Index values <1 indicates synergy, values>1 indicate antagonism and values equal to 1 indicate additive effects.
(§7) For this assay, 3×10^4 uninfected Molt4 cells are cocultivated with 3×10^3 H9/ LA1 or CEM/LA1 chronically infected cells per well in 24 well plates. Inhibitors are added on day 0, and the assay plates are re-fed on days 1 and 3 with growth medium containing the inhibitors. The assay is harvested on day 5. Antiviral activity is measured by several parameters: Western blot analysis of pelleted cells from treated cultures, RT levels, and p24 antigen levels in the supernatant.
(§8) The combined drug effects are calculated by the multiple drug analysis method of Chou and Talalay (Chou and Talalay, 1984, Adv. Enzyme Regul. 22:27-55) and ‘Dose-Effect Analysis with Microcomputers’ software (Chou and Chou, 1987, software and manual. p19-64. Elsevier Biosoft, Cambridge, UK) using the equation: [formula]
(§9) where CI is the combination index, (Dx)1 is the dose of drug 1 required to produce x percent effect alone, (D)1 is the dose of drug 1 required to produce the same x percent effect in combination with (D)2. The values of (Dx)2 and (D)2 are similarly derived from drug 2. The value of α is determined from the plot of the dose effect curve using the median effect equation:
(§10) where fa is the fraction affected by dose D, fu is the uninfected fraction, Dm is the dose required for 50% effect and m is the slope of the dose-effect curve. […] If the agents are mutually exclusive α is 0. and if they are mutually nonexclusive, α is 1. […] CI values of <1 indicate synergy, values>1 indicate antagonism and values equal to 1 indicate additive effects.

HIV-1IIIb [4] = assay: Combination indices from in vitro HIV-1IIIb/CEM co-culture (Chou and Talalay)
Method: as §6, §7, §8, §9, §10

HIV-1LA1 [5] = conditions: control peptides; cited from earlier work
[6] = Toxicity in in vitro studies and in animals
Excerpt: The present invention provides the first reported use of such peptides in combination with another antiviral or any other therapeutic agent.

HIV-1LA1 [7] = assay: Cell fusion assay: syncytia formation, uninfected Molt4 cells co-cultivated with chronically HIV-1 infected CEM cells; format: cell-based
Method: A cell fusion assay may be utilized to test the peptides' ability to inhibit HIV-induced syncytia formation in vitro. Such an assay may comprise culturing uninfected CD-4^+ cells (such as Molt or CEM cells, for example) in the presence of chronically HIV-infected cells and a therapeutic agent to be assayed. For each combinational therapy, a range of concentrations may be tested. […] Standard conditions for culturing, well known to those of ordinary skill in the art, are used. After incubation for an appropriate period (24 hours at 37° C., for example) the culture is examined microscopically for the presence of multinucleated giant cells, which are indicative of cell fusion and syncytia formation.
Approximately 7×10^4 Molt cells were incubated with 1×10^4CEM cells chronically infected with the HIV-1LA1 virus in 96-well plates (one-half area cluster plates; Costar, Cambridge, Mass.) in a final volume of 100 μl culture medium as previously described (Matthews, T. J. et al., 1987, Proc. Natl. Acad. Sci. USA 84: 5424-5428). Peptide inhibitors were added in a volume of 10 μl and the cell mixtures were incubated for 24 hr. at 37° C. At that time, multinucleated giant cells were estimated by microscopic examination at a 40×magnification which allowed visualization of the entire well in a single field.
The initial screen for antiviral activity assayed peptides' ability to block syncytium formation induced by overnight co-cultivation of uninfected Molt4 cells with chronically HIV-1 infected CEM cells. […] For these experiments, CEM cells chronically infected with either HIV-1LA1, HIV-1MN, HIV-1RF, or HIV-1SF2 virus were cocultivated overnight with uninfected Molt 4 cells.

HIV-2 = assay: Cell fusion assay: HIV-2 mediated syncytia formation; format: cell-based; conditions: comparison HIV-1 / HIV-2, same cell type
HIV-2NIHZ = assay: Cell free virus infection assay, CEM cells, reverse transcriptase readout; format: cell-based; conditions: 25 TCID50 HIV-2NIHZ, 7 days
Method: (§1) The resulting reverse transcriptase (RT) activity in counts per minute was determined using the assay described, below, in Section 6.1.5. See, Reed, L. J. et al., 1938, Am. J. Hyg. 27: 493-497 for an explanation of TCID50 calculations.
(§2) The micro-reverse transcriptase (RT) assay was adapted from Goff et al. (Goff, S. et al., 1981, J. Virol. 38:239-248) and Willey et al. (Willey, R. et al., 1988, J. Virol. 62:139-147). Supernatants from virus/cell cultures are adjusted to 1% Triton-X100. A 10 μl sample of supernatant was added to 50 μl of RT cocktail in a 96-well U-bottom microtitre plate and the samples incubated at 37° C. for 90 min. The RT cocktail contained 75 mM KCl, 2 mM dithiothreitol, 5 mM MgCl2, 5 μg/ml poly A (Pharmacia, cat. No. 27-4110-01), 0.25 units/ml oligo dT (Pharmacia, cat. No. 27-7858-01), 0.05% NP40, 50 mM Tris-HCl, pH 7.8, 0.5 μM non-radioactive dTTP, and 10 μCi/ml ^32P-dTTP (Amersham, cat. No. PB.10167).
After the incubation period, 40 μl of reaction mixture was applied to a Schleicher and Schuell (S+S) NA45 membrane (or DE81 paper) saturated in 2×SSC buffer (0.3 M NaCl and […] sodium citrate) held in a S+S Minifold over one sheet of GB003 (S+S) filter paper, with partial vacuum applied. Each well of the minifold was washed four times with 200 μl 2×SSC, under full vacuum. […]

HIV-1LA1 [8] = test system: HIV-1LA1
Method: as §1, §2
After the incubation period, 40 μl of reaction mixture was applied to a Schleicher and Schuell (S+S) NA45 membrane (or DE81 paper) saturated in 2×SSC buffer (0.3 M NaCl and […] sodium citrate) held in a S+S Minifold over one sheet of GB003 (S+S) filter paper, with partial vacuum applied. Each well of the minifold was washed four times with 200 μl 2×SSC, under full vacuum. The membrane was removed from the minifold and washed 2 more times in a pyrex dish with an excess of 2×SSC. Finally, the membrane was drained on absorbent paper, placed on Whatman #3 paper, covered with Saran wrap, and exposed to film overnight at −70° C.
After 7 days of culture, cell-free supernatant was tested for the presence of RT activity as a measure of successful infection.

HIV-1RF = assay: Cell fusion assay: syncytia formation, Molt4 cells with chronically infected CEM cells; format: cell-based; conditions: HIV-1RF infected CEM cells
Excerpt: (§3) The results of several such experiments are presented herein.

HIV-1SF2 = assay: as above; format: cell-based; conditions: HIV-1SF2 infected CEM cells
Excerpt: as §3

HIV-1MN = assay: as above; format: cell-based; conditions: HIV-1MN infected CEM cells
Excerpt: as §3

HIV-1/IIIb = format: cell-based; conditions: 5 h
Excerpt: Anti-HIV assays: The antiviral assays performed were as those described, above, in Section 6.1. Assays utilized HIV-1/IIIb and/or HIV-2 NIHZ isolates. Purified peptides were used, unless otherwise noted in FIGS. 5A-5L.

[9] = Cell proliferation and toxicity assay; format: cell-based; conditions: human, CEM cells
Method: (§4) Cell proliferation and toxicity assay: Approximately 3.8×10^5 CEM cells for each peptide concentration were incubated for 3 days at 37° C. in T25 flasks. […] The concentrations of each peptide used were 0, 2.5, 10, and 40 μg/ml. Cell counts were taken at incubation times of 0, 24, 48, and 72 hours.
(§5) Additionally, cells were incubated in the absence of either peptide.

CEM cells = assay: Cell proliferation and toxicity assay; format: cell-based
Method: as §4, §5

CC(C)c1nc(CN(C)C(=O)N[C@H](C(=O)N[C@@H](Cc2ccccc2)C[C@H](O)[C@H](Cc2ccccc2)NC(=O)OCc2cncs2)C(C)C)cs1 [ABT-538]
CD4 lymphocyte counts (HIV-1 [1]; AIDS patients): rise substantially | plasma HIV-1 levels (HIV-1 [1]; AIDS patients): decrease exponentially | pharmacokinetic and safety profiles in vivo (HIV-1 [1]; human, in vivo): favorable pharmokinetic and safety profiles | antiviral activity in vitro (HIV-1 [2]): potent antiviral activity

Cc1cn([C@H]2C[C@H](N=[N+]=[N-])[C@@H](CO)O2)c(=O)[nH]c1=O [AZT, 3′-azido-2′,3′-dideoxythymidine]
EC50 (HIV-1IIIb [3]): 13.1 µg/mL (≈ 49.2 µM)

CC(C)(C)NC(=O)[C@@H]1CN(Cc2cccnc2)CCN1C[C@@H](O)C[C@@H](Cc1ccccc1)C(=O)N[C@H]1c2ccccc2C[C@H]1O [Indinavir]
EC50 (HIV-1IIIb [3]): 0.0276 µg/mL (≈ 0.045 µM)

Cc1c(O)cccc1C(=O)N[C@@H](CSc1ccccc1)[C@H](O)CN1C[C@H]2CCCC[C@H]2C[C@H]1C(=O)NC(C)(C)C [Nelfinavir, reference compound]
EC50 (HIV-1IIIb [4]; Human immunodeficiency virus 1, read-out: Dm Drug #2 (dose required for 50% effect)): 0.0609 µg/mL | EC50 (HIV-1IIIb [3]): 0.00927 µg/mL (≈ 0.0163 µM)

Nc1ccn([C@@H]2CS[C@H](CO)O2)c(=O)n1 [Peptide 3TC, reference compound]
Dm Drug #2 (dose required for 50% effect) (HIV-1IIIb [4]; experiments T20:3TC 2:1, T20:Nelfinavir 5:1): 63.73 ng/mL | EC50 (HIV-1IIIb [3]): 0.0748 µg/mL (≈ 0.326 µM)

Ac-LQARILAVERYLKDQQQ-NH2 (N-terminus and C-terminus assumed) [DP-116]
activity previously shown in the cell-free virus infection assay (HIV-1LA1 [5]): inactive; also recorded: ineffective as a HIV inhibitor; also recorded: negative for inhibition of HIV-1 infection

Ac-NNLLRAIEAQQHLLQLTVWGIKQLQARILAVERYLKDQ-NH2 [DP-107]
toxicity in in vitro studies and in animals [6]: non-toxic

DP-180: control peptide incorporating the amino acid residues of DP-178 in a scrambled sequence (SSESFTLLEQWNNWKLQLAEQWLEQINEKHYLEDIS; Human immunodeficiency virus) [reference compound]
concentration with no evidence of anti-fusogenic activity (HIV-1LA1 [7]; high concentration tested): > 40 µg/mL

Enfuvirtide
concentration failing to block HIV-2 mediated syncytia formation (HIV-2): > 10 µg/mL | Dm T20 (dose required for 50% effect) (HIV-1IIIb [4]; experiment T20:3TC 1:1.5): 158.87 ng/mL | Dm T20 (dose required for 50% effect) (HIV-1IIIb [4]; experiment T20:3TC 2:1): 298.50 ng/mL | Dm T20 (dose required for 50% effect) (HIV-1IIIb [4]; experiment T20:Indinavir 10:1): 298.50 ng/mL | Dm T20 (dose required for 50% effect) (HIV-1IIIb [4]; experiment T20:Nelfinavir 1.33:1): 172.02 ng/mL | Dm T20 (dose required for 50% effect) (HIV-1IIIb [4]; experiment T20:Nelfinavir 5:1): 298.50 ng/mL | Dm T20 (dose required for 50% effect) (HIV-1IIIb [4]; experiment T:20:AZT 1:10): 298.50 ng/mL | selectivity as inhibitor of HIV-1-mediated over HIV-2 mediated cell fusion (HIV-1LA1 [7]): 4 log | concentration affording complete protection against syncytium formation (lowest concentration tested) (HIV-1LA1 [7]; HIVLA1 infected CEM cells, overnight co-cultivation): ≤ 12.5 ng/mL | lowest effective inhibitory concentration completely blocking virus induced syncytia formation (HIV-1LA1 [7]; Molt4 + chronically infected CEM cells, 24 hr): 1 to 10 ng/mL | peptide concentration blocking HIV-1-mediated syncytia formation (HIV-1LA1 [7]; comparison HIV-1 / HIV-2): below 1 ng/ml | IC50 for HIV-2NIHZ (HIV-2NIHZ): much higher IC50 | IC50, inhibition of HIV-1 infection (HIV-1LA1 [8]; 62 TCID50 HIV-1LA1, CEM cells, 7 days): about 3 ng/ml | IC50, inhibition of RT production from infected cells (HIV-1LA1 [8]; 247 TCID50 HIV-1LA1, CEM cells, 7 days): 0.09 µg/mL | potency as HIV-1 inhibitor relative to HIV-2 inhibitor (HIV-1LA1 [8]; HIV-1LA1 vs HIV-2NIHZ, cell-free infection): two logs more potent | concentration affording complete protection against syncytium formation (lowest concentration used) (HIV-1RF): ≤ 100 ng/mL | concentration affording complete protection against syncytium formation (lowest concentration used) (HIV-1SF2): ≤ 100 ng/mL | concentration affording complete protection against syncytium formation (lowest concentration used) (HIV-1MN): ≤ 100 ng/mL

H-YTSLIHSLIEESQNQQEK-OH [Peptide T-4]
IC50, antiviral activity (HIV-1/IIIb): > 400 µg/mL

enfuvirtide
viability at 0 h, 2.5 µg/mL ([9]; 2.5 μg/ml, 0 hours): 98% | viability at 24 h, 2.5 µg/mL ([9]; 2.5 μg/ml, 24 hours): 93% | viability at 48 h, 2.5 µg/mL ([9]; 2.5 μg/ml, 48 hours): 96% | viability at 72 h, 2.5 µg/mL ([9]; 2.5 μg/ml, 72 hours): 96% | viability at 0 h, 10 µg/mL ([9]; 10 μg/ml, 0 hours): 98% | viability at 24 h, 10 µg/mL ([9]; 10 μg/ml, 24 hours): 97% | viability at 48 h, 10 µg/mL ([9]; 10 μg/ml, 48 hours): 98% | viability at 72 h, 10 µg/mL ([9]; 10 μg/ml, 72 hours): 98% | viability at 0 h, 40 µg/mL ([9]; 40 μg/ml, 0 hours): 98% | viability at 24 h, 40 µg/mL ([9]; 40 μg/ml, 24 hours): 97% | viability at 48 h, 40 µg/mL ([9]; 40 μg/ml, 48 hours): 95% | viability at 72 h, 40 µg/mL ([9]; 40 μg/ml, 72 hours): 97% | non-cytotoxic peptide concentration relative to HIV inhibitory dose (CEM cells): greater than 3 log | concentration non-cytotoxic to cells in culture (highest tested) (CEM cells; CEM cells, 3 days): > 40000 ng/mL | cytotoxic effects on cells in culture (CEM cells; CEM cells, up to 40 μg/ml, 3 days): no cytotoxic effects | toxicity in in vitro studies and in animals [6]: non-toxic
